From patent US20240016938A1, “METHODS FOR INCREASING THE BIOAVAILABILITY OF NUCLEOSIDE MEDICINAL AGENTS” (ZOGENIX MDS, INC., priority 2022, published 2024)
Where two headings read alike, the source gives them in different places.

Test: Phase 1 open-label, fixed-sequence, single-ascending dose and food-effect PK study of MT1621 in adult healthy subjects
Assay type: in vivo, human
Procedure: A phase 1 study was conducted as an open-label, fixed-sequence, single-ascending dose study in adult healthy subjects designed to evaluate the safety, tolerability, PK, and food-effect of MT1621 (dC and dT). To evaluate the PK of MT1621, the combination was administered at three different doses. Treatment A was a 43.3 mg/kg dose of MT1621 (i.e., a 43.3 mg/kg dose of dC and a 43.3 mg/kg dose of dT (each approximately equivalent to 1 dose of a 130 mg/kg daily dose, divided 3 times daily [TID])) in healthy male and female subjects under fasting conditions; Treatment B was an 86.7 mg/kg dose of MT1621 (i.e., a 86.7 mg/kg dose of dC and a 86.7 mg/kg dose of dT (each approximately equivalent to 1 dose of a 260 mg/kg daily dose, divided TID)) in healthy male and female subjects under fasting conditions; and Treatment C was a 133.3 mg/kg dose of MT1621 (i.e., a 133.3 mg/kg dose of dC and a 133.3 mg/kg dose of dT (each approximately equivalent to a 400 mg/kg daily dose, divided TID)) in healthy male and female subjects under fasting conditions. Additionally, Treatment D was a 133.3 mg/kg dose of MT1621 (i.e., a 133.3 mg/kg dose of dC and a 133.3 mg/kg dose of dT (each approximately equivalent to a 400 mg/kg daily dose, divided TID) in healthy male and female subjects under fed conditions, to determine the effect of a high-fat meal on the single-dose PK of MT1621.
Methodology of open-label, Phase 1, fixed-sequence, single-dose, dose escalation, and food-effect study. Fourteen (14) healthy, adult, male and female subjects were enrolled with an approximately equal distribution (at least 40% of each sex) between male and female subjects.
On Day 1 of each period, subjects received 1 of 3 dose levels of MT1621 under fasting conditions as escalating single doses over 3 periods in Part A (Treatments A, B, and C in Periods 1, 2, and 3, respectively) and with the highest dose under fed conditions in Part B (Treatment D in Period 4). Four (4) of 14 subjects that completed Part A (Periods 1 to 3) could not complete Part B (Treatment D in Period 4) during the original confinement. These subjects were then to return to the clinical unit and continue the study to complete Part B (Treatment D in Period 4); 2 of the 4 subjects completed Part B.
Each treatment was assessed by blood and urine PK sampling pre-dose and up to 48 hours post-dose for the determination of dC and dT in plasma and urine PK, and possible future analysis of blood for PD biomarkers.
A washout period of at least 2 days without drug between each treatment administration was maintained. Fourteen subjects were enrolled in the study, and 12 subjects completed the study. Data from 14 subjects were included in the PK analysis of Periods 1, 2, and 3 and data from 12 subjects were included in the PK analysis of Period 4.
Study drug administered in Example 1 was 0.5 g dC and 0.5 g dT powders for solution and were reconstituted in juice or water.
After reconstitution in a fixed amount of water or juice, the solution was administered via measured volume to provide the amounts specified in Studies A, B, C, and D.
MT1621 was administered orally at Hour 0 on Day 1, following an overnight fast for Treatments A, B, and C and within 5 minutes of consumption of a standardized high-fat breakfast (which included eggs, bacon, and toast with butter) for Treatment D.
Blood samples for the determination of plasma dC and dT concentrations were collected on Day 1 of each period at pre-dose (0 hour), and at 0.25, 0.5, 1, 1.5, 2, 3, 4, 5, 6, 8, 12, 24, and 48 after study drug administration. In Period 4, blood was collected for the 48-hour PK sample; for Periods 1 through 3, the 48-hour PK sample was collected at the same time as the pre-dose PK sample from the next period so only 1 sample was collected for both PK time points. It should be pointed out that Periods 1-3 used sampling up to 24 hours for PK while Period 4 used the complete 48-hour profile. […]

[1] = 100*(test/reference): 133.3 mg/kg MT1621 fed vs fasted, baseline-adjusted plasma
[2] = Treatment A: single 43.3 mg/kg MT1621, fasted, baseline-adjusted plasma, arithmetic mean ± SD
[3] = Treatment B: single 86.7 mg/kg MT1621, fasted, baseline-adjusted plasma, arithmetic mean ± SD
[4] = Treatment D: single 133.3 mg/kg MT1621, fed (high-fat breakfast), baseline-adjusted plasma, arithmetic mean ± SD

- increase in baseline adjusted AUC, fed compared to fasted (133.3 mg/kg MT1621, plasma): 137%
- increase in baseline adjusted Cmax, fed compared to fasted (133.3 mg/kg MT1621, plasma): 79%
- AUC0-t GMR (%) [1]: 237.18%
- Cmax GMR (%) [1]: 178.88%
- AUC%extrap [2]: 11.36 ± 8.5281%
- Kel [2]: 0.1280 ± 0.1276 h⁻¹
- AUC%extrap [3]: 12.46 ± 13.194%
- Kel [3]: 0.2030 ± 0.1938 h⁻¹
- AUC%extrap (Treatment C: single 133.3 mg/kg MT1621, fasted, baseline-adjusted plasma, arithmetic mean ± SD): 1.152 ± 1.0948%
- AUC%extrap [4]: 3.567 ± 5.0087%
- Kel [4]: 0.7971 ± 0.3869 h⁻¹
- dose proportionality of Cmax (across the 3 fasted dose levels (Treatments A, B, C), plasma): less than dose-proportional
- Vd/F (both sexes, human, oral, Treatment D: single 133.3 mg/kg MT1621, fed (high-fat breakfast), baseline-adjusted plasma, arithmetic mean ± SD, read-out: Vz/F): 1660 ± 1470 L/kg
- half-life (both sexes, human, plasma, oral, 43.3 mg/kg, 43.3 mg/kg dose level, read-out: geometric mean elimination half-life (converted)): 2.16 h
- half-life (both sexes, human, plasma, oral, 43.3 mg/kg, Treatment A: single 43.3 mg/kg MT1621, fasted, baseline-adjusted plasma, arithmetic mean ± SD, read-out: t½ (converted)): 10.3 ± 8.2 h
- AUC(0-inf) (both sexes, human, plasma, oral, 43.3 mg/kg, Treatment A: single 43.3 mg/kg MT1621, fasted, baseline-adjusted plasma, geometric mean (geometric CV %)): 48.4 ng·h/mL
- AUC(0-t) (both sexes, human, plasma, oral, 43.3 mg/kg, Treatment A: single 43.3 mg/kg MT1621, fasted, baseline-adjusted plasma, geometric mean (geometric CV %), read-out: AUC0-4): 7.84 ng·h/mL
- AUC(0-t) (both sexes, human, plasma, oral, 43.3 mg/kg, Treatment A: single 43.3 mg/kg MT1621, fasted, baseline-adjusted plasma, geometric mean (geometric CV %), read-out: AUC0-6): 9.58 ng·h/mL
- AUC(0-t) (both sexes, human, plasma, oral, 43.3 mg/kg, Treatment A: single 43.3 mg/kg MT1621, fasted, baseline-adjusted plasma, geometric mean (geometric CV %), read-out: AUC0-48): 19.6 ng·h/mL
- AUC(0-t) (both sexes, human, plasma, oral, 43.3 mg/kg, Treatment A: single 43.3 mg/kg MT1621, fasted, baseline-adjusted plasma, geometric mean (geometric CV %), read-out: AUC0-t): 13.5 ng·h/mL
- Cmax (both sexes, human, plasma, oral, 43.3 mg/kg, Treatment A: single 43.3 mg/kg MT1621, fasted, baseline-adjusted plasma, geometric mean (geometric CV %), read-out: Cmax): 3.53 ng/mL
- Tmax (both sexes, human, plasma, oral, 43.3 mg/kg, Treatment A: single 43.3 mg/kg MT1621, fasted, baseline-adjusted plasma, median (minimum, maximum), read-out: Tmax): 1.25 h
- half-life (both sexes, human, plasma, oral, 86.7 mg/kg, 86.7 mg/kg dose level, read-out: geometric mean elimination half-life (converted)): 1.44 h
- half-life (both sexes, human, plasma, oral, 86.7 mg/kg, Treatment B: single 86.7 mg/kg MT1621, fasted, baseline-adjusted plasma, arithmetic mean ± SD, read-out: t½ (converted)): 8.62 ± 8.68 h
- AUC(0-inf) (both sexes, human, plasma, oral, 86.7 mg/kg, Treatment B: single 86.7 mg/kg MT1621, fasted, baseline-adjusted plasma, geometric mean (geometric CV %)): 26.6 ng·h/mL
- AUC(0-t) (both sexes, human, plasma, oral, 86.7 mg/kg, Treatment B: single 86.7 mg/kg MT1621, fasted, baseline-adjusted plasma, geometric mean (geometric CV %), read-out: AUC0-4): 10.3 ng·h/mL
- AUC(0-t) (both sexes, human, plasma, oral, 86.7 mg/kg, Treatment B: single 86.7 mg/kg MT1621, fasted, baseline-adjusted plasma, geometric mean (geometric CV %), read-out: AUC0-6): 12.8 ng·h/mL
- AUC(0-t) (both sexes, human, plasma, oral, 86.7 mg/kg, Treatment B: single 86.7 mg/kg MT1621, fasted, baseline-adjusted plasma, geometric mean (geometric CV %), read-out: AUC0-48): 29.4 ng·h/mL
- AUC(0-t) (both sexes, human, plasma, oral, 86.7 mg/kg, Treatment B: single 86.7 mg/kg MT1621, fasted, baseline-adjusted plasma, geometric mean (geometric CV %), read-out: AUC0-t): 23.2 ng·h/mL
- Cmax (both sexes, human, plasma, oral, 86.7 mg/kg, Treatment B: single 86.7 mg/kg MT1621, fasted, baseline-adjusted plasma, geometric mean (geometric CV %), read-out: Cmax): 4.67 ng/mL
- Tmax (both sexes, human, plasma, oral, 86.7 mg/kg, Treatment B: single 86.7 mg/kg MT1621, fasted, baseline-adjusted plasma, median (minimum, maximum), read-out: Tmax): 1.51 h
- half-life (both sexes, human, plasma, oral, 133.3 mg/kg, 133.3 mg/kg dose level, read-out: geometric mean elimination half-life (converted)): 3.01 h
- AUC(0-t) (both sexes, human, plasma, oral, 133.3 mg/kg, Treatment C, fasted, baseline-adjusted plasma, ANOVA on ln-transformed data, read-out: AUC0-t Geometric LSM, 133.3 mg/kg MT1621, Fasted (Reference)): 30.8 ng·h/mL
- Cmax (both sexes, human, plasma, oral, 133.3 mg/kg, Treatment C, fasted, baseline-adjusted plasma, ANOVA on ln-transformed data, read-out: Cmax Geometric LSM, 133.3 mg/kg MT1621, Fasted (Reference)): 7.17 ng/mL
- half-life (both sexes, human, plasma, oral, 133.3 mg/kg, Treatment C: single 133.3 mg/kg MT1621, fasted, baseline-adjusted plasma, arithmetic mean ± SD, read-out: t½ (converted)): 2.67 ± 1.98 h
- AUC(0-inf) (both sexes, human, plasma, oral, 133.3 mg/kg, Treatment C: single 133.3 mg/kg MT1621, fasted, baseline-adjusted plasma, geometric mean (geometric CV %)): 22.5 ng·h/mL
- AUC(0-t) (both sexes, human, plasma, oral, 133.3 mg/kg, Treatment C: single 133.3 mg/kg MT1621, fasted, baseline-adjusted plasma, geometric mean (geometric CV %), read-out: AUC0-4): 17.1 ng·h/mL
- AUC(0-t) (both sexes, human, plasma, oral, 133.3 mg/kg, Treatment C: single 133.3 mg/kg MT1621, fasted, baseline-adjusted plasma, geometric mean (geometric CV %), read-out: AUC0-6): 21.1 ng·h/mL
- AUC(0-t) (both sexes, human, plasma, oral, 133.3 mg/kg, Treatment C: single 133.3 mg/kg MT1621, fasted, baseline-adjusted plasma, geometric mean (geometric CV %), read-out: AUC0-48): 53.1 ng·h/mL
- AUC(0-t) (both sexes, human, plasma, oral, 133.3 mg/kg, Treatment C: single 133.3 mg/kg MT1621, fasted, baseline-adjusted plasma, geometric mean (geometric CV %), read-out: AUC0-t): 30.8 ng·h/mL
- Cmax (both sexes, human, plasma, oral, 133.3 mg/kg, Treatment C: single 133.3 mg/kg MT1621, fasted, baseline-adjusted plasma, geometric mean (geometric CV %), read-out: Cmax): 7.17 ng/mL
- Tmax (both sexes, human, plasma, oral, 133.3 mg/kg, Treatment C: single 133.3 mg/kg MT1621, fasted, baseline-adjusted plasma, median (minimum, maximum), read-out: Tmax): 1.26 h
- AUC(0-t) (both sexes, human, plasma, oral, 133.3 mg/kg, Treatment D, fed, baseline-adjusted plasma, ANOVA on ln-transformed data, read-out: AUC0-t Geometric LSM, 133.3 mg/kg MT1621, Fed (Test)): 73 ng·h/mL
- Cmax (both sexes, human, plasma, oral, 133.3 mg/kg, Treatment D, fed, baseline-adjusted plasma, ANOVA on ln-transformed data, read-out: Cmax Geometric LSM, 133.3 mg/kg MT1621, Fed (Test)): 12.8 ng/mL
- half-life (both sexes, human, plasma, oral, 133.3 mg/kg, Treatment D: single 133.3 mg/kg MT1621, fed (high-fat breakfast), baseline-adjusted plasma, arithmetic mean ± SD, read-out: t½ (converted)): 0.986 ± 0.478 h
- AUC(0-inf) (both sexes, human, plasma, oral, 133.3 mg/kg, Treatment D: single 133.3 mg/kg MT1621, fed (high-fat breakfast), baseline-adjusted plasma, geometric mean (geometric CV %)): 138 ng·h/mL
- AUC(0-t) (both sexes, human, plasma, oral, 133.3 mg/kg, Treatment D: single 133.3 mg/kg MT1621, fed (high-fat breakfast), baseline-adjusted plasma, geometric mean (geometric CV %), read-out: AUC0-4): 31.7 ng·h/mL
- AUC(0-t) (both sexes, human, plasma, oral, 133.3 mg/kg, Treatment D: single 133.3 mg/kg MT1621, fed (high-fat breakfast), baseline-adjusted plasma, geometric mean (geometric CV %), read-out: AUC0-6): 48.2 ng·h/mL
- AUC(0-t) (both sexes, human, plasma, oral, 133.3 mg/kg, Treatment D: single 133.3 mg/kg MT1621, fed (high-fat breakfast), baseline-adjusted plasma, geometric mean (geometric CV %), read-out: AUC0-48): 55.8 ng·h/mL
- AUC(0-t) (both sexes, human, plasma, oral, 133.3 mg/kg, Treatment D: single 133.3 mg/kg MT1621, fed (high-fat breakfast), baseline-adjusted plasma, geometric mean (geometric CV %), read-out: AUC0-t): 73 ng·h/mL
- Cmax (both sexes, human, plasma, oral, 133.3 mg/kg, Treatment D: single 133.3 mg/kg MT1621, fed (high-fat breakfast), baseline-adjusted plasma, geometric mean (geometric CV %), read-out: Cmax): 12.8 ng/mL
- Tmax (both sexes, human, plasma, oral, 133.3 mg/kg, Treatment D: single 133.3 mg/kg MT1621, fed (high-fat breakfast), baseline-adjusted plasma, median (minimum, maximum), read-out: Tmax): 2.02 h
- Tmax (both sexes, human, plasma, oral, under fasted conditions, read-out: median Tmax): 1 to 1.25 h
- Tmax (both sexes, human, plasma, oral, under fed conditions, read-out: median Tmax): 1 h
- plasma exposure compared to endogenous (baseline) concentrations (following MT1621, all 3 dose levels): consistently higher
Compound: Nc1ccn([C@H]2C[C@H](O)[C@@H](CO)O2)c(=O)n1 [dC, β-D-2′-deoxycytidine]
